Measurements: patent EP4603105A1, “PHARMACEUTICAL COMPOSITION CONTAINING CYCLIC COMPOUND HAVING SELECTIVE KRAS INHIBITORY EFFECT AGAINST HRAS AND NRAS” (CHUGAI SEIYAKU KABUSHIKI KAISHA, priority 2022, dated 2024)
Where a SMILES comes first, the peptide text is derived from it. Bridges are numbered along the chain shown (N, C = ends). [ ]: non-standard residue; d: D form. The star is where a group is joined. hPhe(3,5-F2-4-CF3) = N[C@@H](CCc1cc(F)c(C(F)(F)F)c(F)c1)C(=O)O; hPhe(3-Cl-4-CF3) = N[C@@H](CCc1ccc(C(F)(F)F)c(Cl)c1)C(=O)O; NPrPhe(4-CF3) = CCCN[C@@H](Cc1ccc(C(F)(F)F)cc1)C(=O)O; NMeGly(cPent) = CN[C@H](C(=O)O)C1CCCC1; NMeF = CN[C@@H](Cc1ccccc1)C(=O)O; αMeF = C[C@](N)(Cc1ccccc1)C(=O)O; NMeD = CN[C@@H](CC(=O)O)C(=O)O; NMeL = CN[C@@H](CC(C)C)C(=O)O; αMeL = CC(C)C[C@](C)(N)C(=O)O; Morpholide = C1CN(*)CCO1; Ac5c = NC1(C(=O)O)CCCC1; Aze = O=C(O)[C@@H]1CCN1; Sar = CNCC(=O)O

Experiments:
[1] = tested on: human lung cancer strain NCI-H441; assay type: cell-based
How it was run: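 Proliferation was scored by […] measured after the reagent was added to cultures kept at 37°C in 5% carbon dioxide.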

[2] = target: GDP-bound KRAS wild-type protein (Homo sapiens, UniProt P01116); assay: Binding to KRAS by surface plasmon resonance (SPR), dissociation constant KD
GDP-bound KRAS wild-type protein, sequence (P01116 1-188 isoform P01116-2): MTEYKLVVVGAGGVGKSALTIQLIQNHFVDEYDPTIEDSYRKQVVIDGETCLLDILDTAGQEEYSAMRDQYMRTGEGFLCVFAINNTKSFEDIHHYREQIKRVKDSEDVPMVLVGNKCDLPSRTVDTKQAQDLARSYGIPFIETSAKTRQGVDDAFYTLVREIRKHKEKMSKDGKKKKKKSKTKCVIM
How it was run: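 Recombinant RAS proteins bearing a biotinylated Avi tag and loaded with GDP served as the captured ligand, recaptured fresh every cycle. Binding responses were referenced to an uncoated surface and a buffer-only blank cycle. Dissociation constants were obtained by 1:1 model fitting at 30°C.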

HRAS wild-type protein = HRAS wild-type protein (Homo sapiens, UniProt P01112); assay: Binding to HRAS by surface plasmon resonance (SPR), KD and KD ratio to KRAS
HRAS wild-type protein, sequence (P01112 whole entry): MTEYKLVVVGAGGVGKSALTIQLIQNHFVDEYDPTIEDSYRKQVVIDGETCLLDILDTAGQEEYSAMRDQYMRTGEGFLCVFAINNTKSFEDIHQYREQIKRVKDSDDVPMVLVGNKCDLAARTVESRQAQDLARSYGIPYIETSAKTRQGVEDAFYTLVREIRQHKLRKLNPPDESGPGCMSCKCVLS
How it was run: (§1)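 Compound binding is evaluated by SPR single-cycle kinetics, with concentrations added intermittently from low to high for 75 s each. Target surfaces carry GDP-loaded biotinylated Avi-RAS at about 100–300 RU, regenerated after each cycle; temperature 30°C. A 1:1 binding model gives KD.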

[3] = target: GDP-bound NRAS wild-type protein (Homo sapiens, UniProt P01111); assay: Binding to NRAS by surface plasmon resonance (SPR), KD and KD ratio to KRAS
GDP-bound NRAS wild-type protein, sequence (P01111 whole entry): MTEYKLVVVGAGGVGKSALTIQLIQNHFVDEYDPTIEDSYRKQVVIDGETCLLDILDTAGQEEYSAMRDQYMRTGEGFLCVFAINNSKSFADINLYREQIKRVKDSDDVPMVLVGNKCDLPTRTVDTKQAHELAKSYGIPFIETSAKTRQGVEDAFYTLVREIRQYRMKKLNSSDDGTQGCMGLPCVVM
How it was run: as §1

[4] = ratio of KD for HRAS wild-type protein to KD for KRAS
[5] = ratio of KD for GDP-bound NRAS wild-type protein to KD for KRAS
[6] = Single Cycle Kinetics, 1:1 binding model
[7] = ratio of the KD value with respect to HRAS wild-type protein to the KD value with respect to KRAS
[8] = ratio of the KD value with respect to GDP-bound NRAS wild-type protein to the KD value with respect to KRAS

SMILES	IC50 [1] [nM]	Kd ([2]; 1:1 binding model) [nM]	Kd [2, 6] [nM]	Kd ([2]; Single Cycle Kinetics) [nM]	HRAS /KRAS (HRAS wild-type protein; [4])	NRAS /KRAS [3, 5]	HRAS /KRAS (HRAS wild-type protein; [7])	NRAS /KRAS [3, 8]	HRAS /KRAS (HRAS wild-type protein; ratio of KD value for HRAS wild-type protein to KD value for KRAS (SPR))	NRAS /KRAS ([3]; ratio of KD value for GDP-bound NRAS wild-type protein to KD value for KRAS (SPR))
CCCN1C(=O)[C@@H]2CCN2C(=O)[C@H](Cc2ccccc2)N(C)C(=O)[C@H]([C@@H](C)CC)NC(=O)[C@H](CC(C)C)N(C)C(=O)C[C@@H](C(=O)N2CCOCC2)N(C)C(=O)[C@H](C2CCCC2)N(C)C(=O)C2(CCCC2)NC(=O)[C@@H]2CCCN2C(=O)[C@H](CCc2ccc(C(F)(F)F)c(Cl)c2)NC(=O)CN(C)C(=O)[C@@H]1Cc1ccc(C(F)(F)F)cc1 [PP0209] ([NMeL]I[NMeF][Aze][NPrPhe(4-CF3)][Sar][hPhe(3-Cl-4-CF3)]P[Ac5c][NMeGly(cPent)][NMeD]-Morpholide; lactam N-11)	569	110			C (A compound having a KD ratio of 0.1 or more and less than 3 is denoted as C)	C (A compound having a KD ratio of 0.1 or more and less than 3 is denoted as C)				
CCCN1C(=O)CN(C)C(=O)[C@@H]2CCN2C(=O)[C@H]([C@@H](C)CC)NC(=O)[C@H](CC(C)C)N(C)C(=O)C[C@@H](C(=O)N(C)C)N(C)C(=O)[C@H](C2CCCC2)N(C)C(=O)C2(CCCC2)NC(=O)[C@@H]2CCCN2C(=O)[C@H](CCc2ccc(C(F)(F)F)c(Cl)c2)NC(=O)CN(C)C(=O)[C@@H]1Cc1ccc(C(F)(F)F)cc1 [PP0429] ([NMeL]I[Aze][Sar][NPrPhe(4-CF3)][Sar][hPhe(3-Cl-4-CF3)]P[Ac5c][NMeGly(cPent)][NMeD]-NMe2; lactam N-11)	12.4		0.39				C (A compound having a KD ratio of 0.1 or more and less than 3 is denoted as C)	B (a compound having 3 or more and less than 10 is denoted as B)		
CCCN1C(=O)[C@H](C2CCCC2)N(C)C(=O)C2(CCC2)NC(=O)[C@@H]2C[C@@H](OCC)CN2C(=O)[C@H](CCc2cc(F)c(C(F)(F)F)c(F)c2)NC(=O)CN(C)C(=O)[C@H](Cc2ccc(C(F)(F)F)cc2)N2CCCC[C@@H](C2=O)N(C)C(=O)CN(C)C(=O)[C@H]([C@@H](C)CC)NC(=O)[C@H](CC)N(C)C(=O)C[C@H]1C(=O)N(C)C [PP0644]	20.7		0.15				B (a compound having 3 or more and less than 10 is denoted as B)	C (A compound having a KD ratio of 0.1 or more and less than 3 is denoted as C)		
CCO[C@@H]1C[C@H]2C(=O)NC3(CCC3)C(=O)N(C)[C@@H](C3CCCC3)C(=O)N(C)[C@H](C(=O)N3CCOCC3)CC(=O)N(C)[C@@H](CC(C)C)C(=O)N[C@@H]([C@@H](C)CC)C(=O)N(C)CC(=O)N(C)[C@H]3CCCCCN(C3=O)[C@@H](Cc3ccc(F)c(F)c3)C(=O)N(C)CC(=O)N[C@@H](CCc3cc(F)c(C(F)(F)F)c(F)c3)C(=O)N2C1 [PP0917]	25.2			0.16	B (a compound having 3 or more and less than 10 is denoted as B)	B (a compound having 3 or more and less than 10 is denoted as B)				
CCCN1C(=O)CN(C)C(=O)[C@@H]2CCN2C(=O)[C@H]([C@@H](C)CC)NC(=O)[C@H](CC(C)C)N(C)C(=O)C[C@@H](C(=O)N2CCOCC2)N(C)C(=O)[C@H](C2CCCC2)N(C)C(=O)[C@](C)(Cc2ccccc2)NC(=O)[C@@H]2CCCN2C(=O)[C@H](CCc2cc(F)c(C(F)(F)F)c(F)c2)NC(=O)CN(C)C(=O)[C@@H]1Cc1ccc(C(F)(F)F)cc1 [PP0778] ([NMeL]I[Aze][Sar][NPrPhe(4-CF3)][Sar][hPhe(3,5-F2-4-CF3)]P[αMeF][NMeGly(cPent)][NMeD]-Morpholide; lactam N-11)	546			10	B (a compound having 3 or more and less than 10 is denoted as B)	B (a compound having 3 or more and less than 10 is denoted as B)				
CCCN1C(=O)CN(C)C(=O)[C@@H]2CCN2C(=O)[C@H]([C@@H](C)CC)NC(=O)[C@H](CC(C)C)N(C)C(=O)C[C@@H](C(=O)N2CCOCC2)N(C)C(=O)[C@H](C2CCCC2)N(C)C(=O)[C@](C)(CC(C)C)NC(=O)[C@@H]2CCCN2C(=O)[C@H](CCc2cc(F)c(C(F)(F)F)c(F)c2)NC(=O)CN(C)C(=O)[C@@H]1Cc1ccc(C(F)(F)F)cc1 [PP0776] ([NMeL]I[Aze][Sar][NPrPhe(4-CF3)][Sar][hPhe(3,5-F2-4-CF3)]P[αMeL][NMeGly(cPent)][NMeD]-Morpholide; lactam N-11)	591			15	B (a compound having 3 or more and less than 10 is denoted as B)	B (a compound having 3 or more and less than 10 is denoted as B)				
CC[C@H](C)[C@@H]1NC(=O)[C@H](C2CCC2)N(C)C(=O)C[C@@H](C(=O)N(C)CC)N(C)C(=O)[C@H](C2CCCC2)N(C)C(=O)C2(CCC2)NC(=O)[C@@H]2C[C@H](C)CN2C(=O)[C@H](CCc2cc(F)c(C(F)(F)F)c(F)c2)NC(=O)CN(C)C(=O)[C@H](Cc2ccc(C(F)(F)F)cc2)N2CC/C=C\C[C@@H](C2=O)N(C)C(=O)CN(C)C1=O [PP2082]	7.8		0.11				A (a compound having 10 or more and less than 20 is denoted as A)	AA (a compound having 20 or more is denoted as AA)		
CCO[C@@H]1C[C@H]2C(=O)NC3(CCC3)C(=O)N(C)[C@@H](C3CCCC3)C(=O)N(C)[C@H](C)CC(=O)N(C)[C@@H](CC(C)C)C(=O)N[C@@H]([C@@H](C)CC)C(=O)N(C)CC(=O)N(C)[C@H]3C/C=C\CCN(C3=O)[C@@H](Cc3ccc(C(F)(F)F)cc3)C(=O)N(C)CC(=O)N[C@@H](CCc3cc(F)c(C(F)(F)F)c(F)c3)C(=O)N2C1 [PP1100]	17.6			0.19	B (a compound having 3 or more and less than 10 is denoted as B)	B (a compound having 3 or more and less than 10 is denoted as B)				
CC[C@H](C)[C@@H]1NC(=O)[C@H](C2CC2)N(C)C(=O)C[C@@H](C(=O)N(C)C)N(C)C(=O)[C@H](C2CCCC2)N(C)C(=O)C2(CCC2)N(C)C(=O)[C@@H]2C[C@@H](C)CN2C(=O)[C@H](CCc2cc(F)c(C(F)(F)F)c(F)c2)NC(=O)CN(C)C(=O)[C@H](Cc2ccc(C)cc2)N2CC/C=C\C[C@@H](C2=O)N(C)C(=O)CN(C)C1=O [PP1788]	6.2		0.063						B (a compound having 3 or more and less than 10 is denoted as B)	B (a compound having 3 or more and less than 10 is denoted as B)

Continued, in another order:

IC50 [1] [nM]	Kd ([2]; 1:1 binding model) [nM]	Kd [2, 6] [nM]	Kd ([2]; Single Cycle Kinetics) [nM]	SMILES	HRAS /KRAS (HRAS wild-type protein; [4])	NRAS /KRAS [3, 5]	HRAS /KRAS (HRAS wild-type protein; [7])	NRAS /KRAS [3, 8]	HRAS /KRAS (HRAS wild-type protein; ratio of KD value for HRAS wild-type protein to KD value for KRAS (SPR))	NRAS /KRAS ([3]; ratio of KD value for GDP-bound NRAS wild-type protein to KD value for KRAS (SPR))
13.2	0.07			CCO[C@@H]1C[C@H]2C(=O)NC3(CC(C)(C)C3)C(=O)N(C)[C@@H](C3CCCC3)C(=O)N(C)[C@H](C(=O)N(C)CC)CC(=O)N(C)[C@@H]([C@@H](C)OC)C(=O)N[C@@H]([C@@H](C)CC)C(=O)N(C)CC(=O)N(C)[C@H]3C/C=C\CCN(C3=O)[C@@H](Cc3ccc(C(F)(F)F)cc3)C(=O)N(C)CC(=O)N[C@@H](CCc3cc(F)c(C(F)(F)F)c(F)c3)C(=O)N2C1 [PP3160]	A (a compound having 10 or more and less than 20 is denoted as A)	A (a compound having 10 or more and less than 20 is denoted as A)				
507	4.4			CC[C@H](C)[C@@H]1NC(=O)[C@H](COC)N(C)C(=O)C[C@@H](C(=O)N(C)CC)N(C)C(=O)[C@H](C2CCCC2)N(C)C(=O)C2(CC(C)(C)C2)NC(=O)[C@@H]2C[C@@H](F)CN2C(=O)[C@H](CCc2cc(F)cc(F)c2)NC(=O)CN(C)C(=O)[C@H](Cc2ccc(C(F)(F)F)cc2)N2CC/C=C\C[C@@H](C2=O)N(C)C(=O)CN(C)C1=O [PP3138]	A (a compound having 10 or more and less than 20 is denoted as A)	A (a compound having 10 or more and less than 20 is denoted as A)				
54.6	0.41			CCO[C@@H]1C[C@H]2C(=O)NC3(CC(C)(C)C3)C(=O)N(C)[C@@H](C3CCCC3)C(=O)N(C)[C@H](C(=O)N(C)CC)CC(=O)N(C)[C@@H](CC(C)C)C(=O)N[C@@H]([C@@H](C)CC)C(=O)N(C)CC(=O)N(C)[C@H]3C/C=C\CCN(C3=O)[C@@H](Cc3ccc(C(F)F)cc3)C(=O)N(C)CC(=O)N[C@@H](CCc3cc(F)c(C(F)F)c(OC)c3)C(=O)N2C1 [PP3147]	A (a compound having 10 or more and less than 20 is denoted as A)	A (a compound having 10 or more and less than 20 is denoted as A)				
19.5		0.98		CCO[C@@H]1C[C@H]2C(=O)NC3(CCC3)C(=O)N(C)[C@@H](C3CCCC3)C(=O)N(C)[C@H](C(=O)N(C)CC)CC(=O)N(C)[C@H]3CCCCCCc4ccc(cc4)C[C@@H](C(=O)N(C)CC(=O)N[C@@H](CCc4ccc(C(F)(F)F)c(OC)c4)C(=O)N2C1)N1CC/C=C\C[C@@H](C1=O)N(C)C(=O)CN(C)C(=O)[C@H]([C@@H](C)CC)NC3=O [PP2263]			A (a compound having 10 or more and less than 20 is denoted as A)	A (a compound having 10 or more and less than 20 is denoted as A)		
45.8	0.48			CCO[C@@H]1C[C@H]2C(=O)NC3(CC(C)(C)C3)C(=O)N(C)[C@@H](C3CCCC3)C(=O)N(C)[C@H](C(=O)N(C)C)CC(=O)N(C)[C@@H]([C@@H](C)OC)C(=O)N[C@@H]([C@@H](C)CC)C(=O)N3CCC[C@H]3C(=O)N(C)[C@H]3C/C=C\CCN(C3=O)[C@@H](Cc3ccc(C)cc3)C(=O)N(C)CC(=O)N[C@@H](CCc3cc(F)c(C(F)(F)F)c(F)c3)C(=O)N2C1 [PP3214]	A (a compound having 10 or more and less than 20 is denoted as A)	A (a compound having 10 or more and less than 20 is denoted as A)				
